Assay results published in PubChem BioAssay (NCI).
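Cells were grown in 96-well plates and exposed to each compound for 48 hours at five concentrations; endpoints were interpolated linearly between bracketing concentrations, or set to the highest concentration if not reached. Definition used: TGI = concentration required for complete inhibition of growth.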

How the values were obtained:
Experiment in all cases: NCI anticancer screen, dose series, 48 h
SF-268 CNS = test system: SF-268 CNS
OVCAR-3 ovarian = test system: OVCAR-3 ovarian
HS 578T breast = test system: HS 578T breast
MOLT-4 leukemia = test system: MOLT-4 leukemia
SF-295 CNS = test system: SF-295 CNS
NCI/ADR-RES ovarian = test system: NCI/ADR-RES ovarian
MDA-MB-435 = test system: MDA-MB-435
SNB-19 CNS = test system: SNB-19 CNS
NCI-H522 lung = test system: NCI-H522 lung
MALME-3M melanoma = test system: MALME-3M melanoma
CCRF-CEM leukemia = test system: CCRF-CEM leukemia
T-47D breast = test system: T-47D breast
MDA-MB-231 breast = test system: MDA-MB-231 breast
HCT-15 colon = test system: HCT-15 colon
HOP-62 NSCLC = test system: HOP-62 NSCLC
HCT-116 colon = test system: HCT-116 colon
OVCAR-5 ovarian = test system: OVCAR-5 ovarian
SK-MEL-5 melanoma = test system: SK-MEL-5 melanoma
OVCAR-8 ovarian = test system: OVCAR-8 ovarian
MCF7 breast = test system: MCF7 breast
HT29 colon = test system: HT29 colon
IGROV1 ovarian = test system: IGROV1 ovarian
SW-620 colon = test system: SW-620 colon
NCI-H23 lung = test system: NCI-H23 lung
KM12 colon = test system: KM12 colon
A549 NSCLC = test system: A549 NSCLC
UACC-62 melanoma = test system: UACC-62 melanoma
DU-145 prostate = test system: DU-145 prostate
SN12C renal = test system: SN12C renal
M14 melanoma = test system: M14 melanoma
SNB-75 CNS = test system: SNB-75 CNS
RXF 393 renal = test system: RXF 393 renal
UACC-257 melanoma = test system: UACC-257 melanoma
BT-549 breast = test system: BT-549 breast
PC-3 prostate = test system: PC-3 prostate
COLO 205 colon = test system: COLO 205 colon
RPMI-8226 leukemia = test system: RPMI-8226 leukemia
MDA-N = test system: MDA-N
NCI-H226 lung = test system: NCI-H226 lung
SK-MEL-2 melanoma = test system: SK-MEL-2 melanoma
UO-31 renal = test system: UO-31 renal
U251 CNS = test system: U251 CNS
SF-539 CNS = test system: SF-539 CNS
SK-MEL-28 melanoma = test system: SK-MEL-28 melanoma
EKVX NSCLC = test system: EKVX NSCLC
LOX IMVI melanoma = test system: LOX IMVI melanoma
ACHN renal = test system: ACHN renal
HOP-92 NSCLC = test system: HOP-92 NSCLC
NCI-H460 lung = test system: NCI-H460 lung
TK-10 renal = test system: TK-10 renal
SK-OV-3 ovarian = test system: SK-OV-3 ovarian
OVCAR-4 ovarian = test system: OVCAR-4 ovarian
HCC-2998 colon = test system: HCC-2998 colon
CAKI-1 renal = test system: CAKI-1 renal
K-562 leukemia = test system: K-562 leukemia
SR leukemia = test system: SR leukemia
786-0 renal = test system: 786-0 renal
HL-60(TB) leukemia = test system: HL-60(TB) leukemia

**Q.** For Cc1ccnc(NS(=O)(=O)c2ccc(NC(=O)c3ccc4nc5ccccc5c(Nc5ccc(S(=O)(=O)Nc6nccc(C)n6)cc5)c4c3)cc2)n1, which TGI (SF-268 CNS) is on record?
**A.** > 100 µM

**Q.** And the TGI (OVCAR-3 ovarian)?
**A.** 95.6 µM

**Q.** And the TGI (HS 578T breast)?
**A.** > 100 µM

**Q.** And the TGI (MOLT-4 leukemia)?
**A.** > 100 µM

**Q.** And the TGI (SF-295 CNS)?
**A.** > 100 µM

**Q.** What about the TGI (NCI/ADR-RES ovarian) of the same molecule?
**A.** > 100 µM

**Q.** And the TGI (MDA-MB-435)?
**A.** > 100 µM

**Q.** What about the TGI (SNB-19 CNS) of the same molecule?
**A.** > 100 µM

**Q.** What about the TGI (NCI-H522 lung) of the same molecule?
**A.** 87.4 µM

**Q.** And the TGI (MALME-3M melanoma)?
**A.** > 100 µM

**Q.** What about the TGI (CCRF-CEM leukemia) of the same molecule?
**A.** > 100 µM

**Q.** And the TGI (T-47D breast)?
**A.** > 100 µM

**Q.** And the TGI (MDA-MB-231 breast)?
**A.** > 100 µM

**Q.** And the TGI (HCT-15 colon)?
**A.** > 100 µM

**Q.** And the TGI (HOP-62 NSCLC)?
**A.** > 100 µM

**Q.** What about the TGI (HCT-116 colon) of the same molecule?
**A.** > 100 µM

**Q.** And the TGI (OVCAR-5 ovarian)?
**A.** > 100 µM

**Q.** What about the TGI (SK-MEL-5 melanoma) of the same molecule?
**A.** > 100 µM

**Q.** And the TGI (OVCAR-8 ovarian)?
**A.** > 100 µM

**Q.** What about the TGI (MCF7 breast) of the same molecule?
**A.** 75.1 µM

**Q.** And the TGI (HT29 colon)?
**A.** > 100 µM

**Q.** What about the TGI (IGROV1 ovarian) of the same molecule?
**A.** > 100 µM

**Q.** And the TGI (SW-620 colon)?
**A.** > 100 µM

**Q.** What about the TGI (NCI-H23 lung) of the same molecule?
**A.** > 100 µM

**Q.** And the TGI (KM12 colon)?
**A.** > 100 µM

**Q.** And the TGI (A549 NSCLC)?
**A.** > 100 µM

**Q.** And the TGI (UACC-62 melanoma)?
**A.** > 100 µM

**Q.** And the TGI (DU-145 prostate)?
**A.** > 100 µM

**Q.** And the TGI (SN12C renal)?
**A.** > 100 µM

**Q.** And the TGI (M14 melanoma)?
**A.** > 100 µM

**Q.** What about the TGI (SNB-75 CNS) of the same molecule?
**A.** > 100 µM

**Q.** What about the TGI (RXF 393 renal) of the same molecule?
**A.** 51.2 µM

**Q.** And the TGI (UACC-257 melanoma)?
**A.** > 100 µM

**Q.** And the TGI (BT-549 breast)?
**A.** 32.6 µM

**Q.** What about the TGI (PC-3 prostate) of the same molecule?
**A.** > 100 µM

**Q.** And the TGI (COLO 205 colon)?
**A.** > 100 µM

**Q.** What about the TGI (RPMI-8226 leukemia) of the same molecule?
**A.** > 100 µM

**Q.** And the TGI (MDA-N)?
**A.** > 100 µM

**Q.** And the TGI (NCI-H226 lung)?
**A.** > 100 µM

**Q.** What about the TGI (SK-MEL-2 melanoma) of the same molecule?
**A.** 39.5 µM

**Q.** What about the TGI (UO-31 renal) of the same molecule?
**A.** > 100 µM

**Q.** And the TGI (U251 CNS)?
**A.** 41.7 µM

**Q.** And the TGI (SF-539 CNS)?
**A.** > 100 µM

**Q.** What about the TGI (SK-MEL-28 melanoma) of the same molecule?
**A.** > 100 µM

**Q.** What about the TGI (EKVX NSCLC) of the same molecule?
**A.** > 100 µM

**Q.** What about the TGI (LOX IMVI melanoma) of the same molecule?
**A.** > 100 µM

**Q.** And the TGI (ACHN renal)?
**A.** > 100 µM

**Q.** What about the TGI (HOP-92 NSCLC) of the same molecule?
**A.** 55.4 µM

**Q.** And the TGI (NCI-H460 lung)?
**A.** > 100 µM

**Q.** What about the TGI (TK-10 renal) of the same molecule?
**A.** > 100 µM

**Q.** And the TGI (SK-OV-3 ovarian)?
**A.** > 100 µM

**Q.** What about the TGI (OVCAR-4 ovarian) of the same molecule?
**A.** > 100 µM

**Q.** And the TGI (HCC-2998 colon)?
**A.** > 100 µM

**Q.** What about the TGI (CAKI-1 renal) of the same molecule?
**A.** > 100 µM

**Q.** What about the TGI (K-562 leukemia) of the same molecule?
**A.** > 100 µM

**Q.** And the TGI (SR leukemia)?
**A.** 55.6 µM

**Q.** And the TGI (786-0 renal)?
**A.** > 100 µM

**Q.** What about the TGI (HL-60(TB) leukemia) of the same molecule?
**A.** > 100 µM
